The target in one test is T1, Human Polymorphonuclear Leukocyte Elastase (Homo sapiens, UniProt P08246).
T1 construct: Crude extract of human polymorphonuclear leukocytes (PMN) containing elastase activity; from tissue; host or cells: human polymorphonuclear leukocytes (crude extract)
T1 sequence (P08246 30-267): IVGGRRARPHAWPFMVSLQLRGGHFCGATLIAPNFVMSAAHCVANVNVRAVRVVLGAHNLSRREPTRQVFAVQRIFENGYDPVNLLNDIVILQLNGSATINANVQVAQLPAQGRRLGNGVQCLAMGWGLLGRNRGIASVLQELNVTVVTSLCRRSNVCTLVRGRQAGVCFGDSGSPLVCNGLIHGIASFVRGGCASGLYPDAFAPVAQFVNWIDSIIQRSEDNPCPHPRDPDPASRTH
In words: Inhibition of human polymorphonuclear leukocyte elastase via hydrolysis of Boc-AAPAN or Boc-AAPVN. As to conditions: pH 7.5; second order rate constant for inactivation; Formula A, M n-propyl, R2 4-methyl (TABLE 1); read-out: kobs /[I]. It is filed as biochemical. The method, then:
Enzyme Assays for the Inhibition of Human Polymorphonuclear Leukocyte
Elastase Via Hydrolysis of
N-t-Boc-alanyl-alanyl-prolylalanine-p-nitroanilide (Boc-AAPAN) or
N-t-Boc-alanyl-prolylvaline-p-nitroanilide (Boc-AAPVN) Reagent:
0.05M TES (N-tris[hydroxymethyl]methyl-2-amino-ethanesulfonic acid) Buffer, pH 7.5.
0.2 mM Boc-AAPAN or Boc-AAPVN.
To prepare substrate, the solid was first dissolved in 10.0 ml DMSO. Buffer at pH 7.5 was then added to a final volume of 100 ml.
Crude extract of human polymorphonuclear leukocytes (PMN) containing elastase activity.
Inhibitors (azetidinones) to be tested dissolved in DMSO just before use.
To 1.0 ml of 0.2 mM Boc-AAPAN in a cuvette, 0.01-0.1 ml of DMSO with or without inhibitor was added. After mixing, a measurement was taken at 410 mμ to detect any spontaneous hydrolysis due to presence of test compound. 0.05 Milliliters of PMN extract was then added and the ΔOD/min at 410 mμ was measured and recorded. Beckman model 35 spectrophotometer was used.
Results in Table I were reported as ID50, effective dosage in micrograms per milliliter (μg/ml) for 50% inhibition of the enzyme activity 2 minutes after zero time.
Results were also expressed as Ki, the micromolar concentration of the inhibitor (μM) giving 50% of the control enzyme activity; or as ^k obs/I which is the second order rate constant in per mole per second for inactivation of the enzyme.
The elastase activity in the crude PMN extract may vary from one preparation to another. A control of each new batch is run, and the volume added in the assay procedure is adjusted according to activity.
On to `CCC[C@@H](NC(=O)N1C(=O)C(CC)(CC)[C@@H]1OCC(=O)N(CC)CCN(CCOCC)C(C)C)c1ccc(C)cc1`, for which the kinact/KI worked out at 195000 M⁻¹ s⁻¹. On the same count and under the same terms, for `CCC[C@@H](NC(=O)N1C(=O)C(CC)(CC)[C@@H]1OCC(=O)NCCN(C(C)C)C(C)C)c1ccc(C)cc1` [Y=NHCH2 CH2; R5=H; R7=iPr; R8=iPr, 2-(S)-[2-[[2-(Diisopropylamino)ethyl]amino]-2-oxoethoxy]-3,3-diethyl-N-[1-(R)-(4-methylphenyl)butyl]-4-oxo-1-azetidinecarboxamide] the value was 105000 M⁻¹ s⁻¹; for `CCC[C@@H](NC(=O)N1C(=O)C(CC)(CC)[C@@H]1O[C@@H](C)C(=O)NCCN(C)C)c1ccc(C)cc1` [Y=NHCH2 CH2; R5=Me; R7=Me; R8=Me, 2-(S)-[2-[[2-(Dimethylamino)ethyl]amino]-2-oxo-(1-(S)-methyl)ethoxy]-3,3-diethyl-N-[1-(R)-(4-methylphenyl)butyl]-4-oxo-1-azetidinecarboxamide], 1.04e+06 M⁻¹ s⁻¹; for `CCC[C@@H](NC(=O)N1C(=O)C(CC)(CC)[C@@H]1O[C@@H](C)C(=O)N(C)CCN(C)C)c1ccc(C)cc1` [Y=N(Me)CH2 CH2; R5=Me; R7=Me; R8=Me, 2-(S)-[2-[[2-(Dimethylamino)ethyl]methylamino]-2-oxo-(1-(S)-methyl)ethoxy]-3,3-diethyl-N-[1-(R)-(4-methylphenyl)butyl]-4-oxo-l-azetidinecarboxamide], 1.65e+06 M⁻¹ s⁻¹. Still for that read-out and setting: for `CCC[C@@H](NC(=O)N1C(=O)C(CC)(CC)[C@@H]1OCC(=O)N1CCOCC1)c1ccc(C)cc1` the value was 400000 M⁻¹ s⁻¹; for `CCC[C@@H](NC(=O)N1C(=O)C(CC)(CC)[C@@H]1OCC(=O)N(C)C)c1ccc(C)cc1` [Y=co-valent bond; R5=H; R7=Me; R8=Me], 125000 M⁻¹ s⁻¹. In the case of `CCC[C@@H](NC(=O)N1C(=O)C(CC)(CC)[C@@H]1OCC(=O)N(CCC)CCN(CCOCC)C(C)C)c1ccc(C)cc1` [2-(S)-[2-[[2-((2-Ethoxyethyl)-isopropylamino)ethyl]propylamino]-2-oxoethoxy]-3,3-diethyl-N-[1-(R)-(4-methylphenyl)butyl]-4-oxo-1-azetidinecarboxamide], the kinact/KI is 185000 M⁻¹ s⁻¹. Turning to `CCC[C@@H](NC(=O)N1C(=O)C(CC)(CC)[C@@H]1OCC(=O)N(C)CCCN(C)C)c1ccc(C)cc1` [Y=N(Me)CH2 CH2 CH2; R5=H; R7=Me; R8=Me, 2-(S)-[2-[[3-(Dimethylamino)propyl]methylamino]-2-oxoethoxy]-3,3-diethyl-N-[1-(R)-(4-methylphenyl)butyl]-4-oxo-1-azetidinecarboxamide], the kinact/KI was determined as 115000 M⁻¹ s⁻¹.

As for `CCC[C@@H](NC(=O)N1C(=O)C(CC)(CC)[C@@H]1O[C@@H](C)C(=O)N(CC)CCN(C)C)c1ccc(C)cc1` [Y=N(Et)CH2 CH2; R5=Me; R7=Me; R8=Me, 2-(S)-[2-[[2-(Dimethylamino)ethyl]ethylamino]-2-oxo-(1-(S)-methyl)ethoxy]-3,3-diethyl-N-[1-(R)-(4-methylphenyl)butyl]-4-oxo-1-azetidinecarboxamide], the kinact/KI was 1.77e+06 M⁻¹ s⁻¹. Same read-out and setting: as for `CCC[C@@H](NC(=O)N1C(=O)C(CC)(CC)[C@@H]1OCC(=O)N(CCN(CC)CCOC)C(C)C)c1ccc(C)cc1` [2-(S)-[2-[[2-((2-Methoxyethyl)-ethylamino)ethyl]-isopropylamino]-2-oxoethoxy]-3,3-diethyl-N-[1-(R)-(4-methylphenyl)butyl]-4-oxo-1-azetidinecarboxamide], the figure is 250000 M⁻¹ s⁻¹; as for `CCC[C@@H](NC(=O)N1C(=O)C(CC)(CC)[C@@H]1OCC(=O)N(CCN(CC)CC)C(C)C)c1ccc(C)cc1` [Y=N(iPr)CH2 CH2; R5=H; R7=Et; R8=Et], 175000 M⁻¹ s⁻¹; as for `CCC[C@@H](NC(=O)N1C(=O)C(CC)(CC)[C@@H]1O[C@@H](C)C(=O)NCCN(CC)CC)c1ccc(C)cc1` [Y=NHCH2 CH2; R5=Me; R7=Et; R8=Et, 2-(S)-[2-[[2-(Diethylamino)ethyl]amino]-2-oxo-(1-(S)-methyl)ethoxy]-3,3-diethyl-N-[1-(R)-(4-methyl-phenyl)butyl]-4-oxo-l-azetidinecarboxamide], 1.35e+06 M⁻¹ s⁻¹. Regarding `CCC[C@@H](NC(=O)N1C(=O)C(CC)(CC)[C@@H]1OCC(=O)N(C)CCN(C(C)C)C(C)C)c1ccc(C)cc1` [Y=N(Me)CH2 CH2; R5=H; R7=iPr; R8=iPr, 2-(S)-[2-[[2-(Diisopropylamino)ethyl]methylamino]-2-oxoethoxy]-3,3-diethyl-N-[1-(R)-(4-methylphenyl)butyl]-4-oxo-1-azetidinecarboxamide], the kinact/KI turned out to be 115000 M⁻¹ s⁻¹.

For the molecule `CCC[C@@H](NC(=O)N1C(=O)C(CC)(CC)[C@@H]1OCC(=O)NCCN1CCOCC1)c1ccc(C)cc1` [Y=NHCH2 CH2; R5=H; R7 R8=CH2 CH2OCH2 CH2, 2-(S)-[2-[[2-(morpholin-1-yl)ethyl]amino]-2-oxoethoxy]-3,3-diethyl-N-[1-(R)-(4-methylphenyl)butyl]-4-oxo-1-azetidinecarboxamide], the kinact/KI worked out at 115000 M⁻¹ s⁻¹. `CCC[C@@H](NC(=O)N1C(=O)C(CC)(CC)[C@@H]1OCC(=O)N(CC)CCN(CC)CCOC)c1ccc(C)cc1` [2-(S)-[2-[[2-((2-Methoxyethyl)-ethylamino)ethyl]ethylamino]-2-oxoethoxy]-3,3-diethyl-N-[1-(R)-(4-methylphenyl)butyl]-4-oxo-1-azetidinecarboxamide]: the kinact/KI was 185000 M⁻¹ s⁻¹.

For the molecule `CCC[C@@H](NC(=O)N1C(=O)C(CC)(CC)[C@@H]1OCC(=O)NCCN(CC)CC)c1ccc(C)cc1` [Y=NHCH2 CH2; R5=H; R7=Et; R8=Et, 2-(S)-[2-[[2-(Diethylamino)ethyl]amino]-2-oxoethoxy]-3,3-diethyl-N-[1-(R)-(4-methylphenyl)butyl]-4-oxo-1-azetidinecarboxamide], the kinact/KI worked out at 220000 M⁻¹ s⁻¹. `CCC[C@@H](NC(=O)N1C(=O)C(CC)(CC)[C@@H]1OCC(=O)N(C)CCN(CC)CCOC)c1ccc(C)cc1` [2-(S)-[2-[[2-((2-Methoxyethyl)-ethylamino)ethyl]methylamino]-2-oxoethoxy]-3,3-diethyl-N-[1-(R)-(4-methylphenyl)butyl]-4-oxo-1-azetidinecarboxamide]: the kinact/KI amounted to 110000 M⁻¹ s⁻¹.

On to `CCC[C@@H](NC(=O)N1C(=O)C(CC)(CC)[C@@H]1OCC(=O)N(CC)CCN(CC)CC)c1ccc(C)cc1` [Y=N(Et)CH2 CH2; R5=H; R7=Et; R8=Et, 2-(S)-[2-[[2-(Diethylamino)ethyl]ethylamino]-2-oxoethoxy]-3,3-di ethyl-N-[1-(R)-(4-methylphenyl)butyl]-4-oxo-1-azetidinecarboxamide], for which the kinact/KI was 177000 M⁻¹ s⁻¹.

Staying with this test, now noted: pH 7.5; second order rate constant; Formula A, M n-propyl, R2 3,4-methylenedioxy; read-out: kobs /[I].
Consider `CCC[C@@H](NC(=O)N1C(=O)C(CC)(CC)[C@@H]1OCC(=O)N(CCN(C)C)C(C)C)c1ccc2c(c1)OCO2` [2-(S)-[2-[[2-(Dimethylamino)ethyl]-isopropylamino]-2-oxoethoxyl]-3,-3-diethyl-N-[1-(R)-(3,4-methylenedioxyphenyl)-butyl]-4-oxo-1-azetidinecarboxamide], for which the kinact/KI was determined as 500000 M⁻¹ s⁻¹.

The test is the same for the next values; noted with them: pH 7.5; second order rate constant; Formula A, M n-propyl, R4 piperazine amide with substituent Z; read-out: kobs /[I].
As to `CCC[C@@H](NC(=O)N1C(=O)C(CC)(CC)[C@@H]1OCC(=O)N1CCN(CCO)CC1)c1ccc(C)cc1` [R2=4-Me; R5=H; Z=CH2 CH2 OH, 2-(S)-[2-[2-(4-(2-Hydroxy)ethyl)piperazin-1-yl]-2-oxoethoxy]-3,-3-diethyl-N[1-(R)-(4-methylphenyl)-butyl]-4-oxo-1-azetidinecarboxamide], the kinact/KI worked out at 300000 M⁻¹ s⁻¹. `CCC[C@@H](NC(=O)N1C(=O)C(CC)(CC)[C@@H]1OCC(=O)N1CCN(C)CC1)c1ccc2c(c1)OCO2` [R2=3,4-methylenedioxy-; R5=H; Z=--Me, 2-(S)-[2-[2-(4-Methyl)piperazin-1-yl]-2-oxoethoxy]-3,-3-diethyl-N-[1-(R)-(3,4-methylenedioxyphenyl)-butyl]-4-oxo-1-azetidinecarboxamide]: the kinact/KI came to 530000 M⁻¹ s⁻¹. `CCC[C@@H](NC(=O)N1C(=O)C(CC)(CC)[C@@H]1OCC(=O)N1CCN(C2CC2)CC1)c1ccc(C)cc1` [R2=4-Me; R5=H; Z=cyclopropyl, 2-(S)-[2-[2-(4-Cyclopropyl)piperazin-1-yl]-2-oxoethoxy]-3,-3-diethyl-N-[1-(R)-(4-methylphenyl)-butyl]-4-oxo-1-azetidinecarboxamide]: the kinact/KI worked out at 225000 M⁻¹ s⁻¹. Still for that read-out and setting: as for `CCC[C@@H](NC(=O)N1C(=O)C(CC)(CC)[C@@H]1OCC(=O)N1CCNCC1)c1ccc2c(c1)OCO2` [R2=3,4-methylenedioxy-; R5=H; Z=H], the figure is 515000 M⁻¹ s⁻¹. In the case of `CCC[C@@H](NC(=O)N1C(=O)C(CC)(CC)[C@@H]1OCC(=O)N1CCNCC1)c1ccc(C)cc1` [R2=4-Me; R5=H; Z=H], the kinact/KI turned out to be 250000 M⁻¹ s⁻¹.

(Values after patent publication US5348953A, “Substituted azetidinones as anti-inflammatory and antidegenerative agents” (Merck & Co., Inc., priority 1992, dated 1994).)
